Source: PMC7689089, “Regorafenib combined with PD1 blockade increases CD8 T-cell infiltration by inducing CXCL10 expression in hepatocellular carcinoma” (Journal for Immunotherapy of Cancer, 2020)

Legend:
RIL-175 HCC vasculature = assay: Tumor vessel and hypoxia immunofluorescence (CD31, α-SMA, CA-IX) in RIL-175 orthotopic HCC; format: in vivo, mouse; conditions: regorafenib 10 mg/kg; day 12; vs control
Description: Figure 1 Dose-dependent effects of regorafenib on vascular normalization when used in combination with programmed cell death protein 1 (PD1) blockade in RIL-175 hepatocellular carcinoma (HCC) model. (A, B) Mice with established (4–5 mm in diameter) HCCs were treated with anti-PD1 therapy (P) alone or in combination with 5 mg/kg (R5), 10 mg/kg (R10) or 20 mg/kg (R20) regorafenib versus control (C) (n=8 mice per group, 1-week treatment). We used immunofluorescence (IF) for evaluation of tumor vessels by CD31 and α-smooth muscle actin (α-SMA) immunostaining. […] Representative IF of tumor sections after staining for CD31 (for endothelial cells in green) and α-SMA (for pericytes in red) and DAPI counterstaining (in blue). Five random fields from the tumor center (defined as no inclusion of the edge of the tumor) were evaluated for each sample. Data represent mean values. Scale bars=500 µm. (C) Representative IF confocal microscopy images of tumor vessels using and CD31 staining (green) and tissue hypoxia using CA-IX staining (red) of whole liver sections; scale bars=2 mm. […] (E) Representative IF confocal microscopy images of mature tumor vessels using CD31 staining (green) and α-SMA staining (red) of RIL-175 tumors; scale bars, 100 µm.

RIL-175 cells = assay: STAT1/STAT3 activity in RIL-175 cells in vitro (western blot); format: cell-based, mouse; conditions: 1 µM in vitro
Description: (A) Changes induced by combination of regorafenib (10 mg/kg) with anti-PD1 antibody in immune-related pathways from the gene set enrichment analysis (GSEA) using curated gene sets in RIL-175 HCC model (see also online supplemental dataset S1 and figure S2E). (B, C) Changes induced by combination of regorafenib (10 mg/kg) with anti-PD1 antibody in STAT3 and STAT1 activity (B), showing an increased ratio of phosphorylated (p)-STAT1/p-STAT3 (normalized to total STAT1 and STAT3, respectively) by western blot analysis of whole RIL-175 HCC tissue (C) (n=4 mice). (D) Treatment with regorafenib increases CXCL10 expression by RIL-175 HCC cells in vitro after 36 hours, in a dose-dependent manner (n=6). Culture medium alone was used as a negative control (NC). […] (J, K) Combination therapy increases CXCL10 protein expression in whole RIL-175 tumor tissue 6 hours and 12 hours after in vivo when regorafenib treatment was used at doses of 10 mg/kg (R10) and 20 mg/kg (R20) (n=3) by western blot analysis (J); quantitative data of CXCL10/β-actin ratios are shown in (K). […]
(§1) Flow cytometry analysis. […] After preparation, cells were suspended in 2ml of PBS with 2% BSA, then counted using a cell counting plate (Kova slide) (if the final concentration of cell exceeded 10^7 cells/ml, a dilution factor was applied). […]

CXCL10 = assay: Plasma CXCL10 in patients before and after 2 weeks of regorafenib; format: in vivo, human; conditions: patients with advanced HCC (n=1) and AML (n=7); after 2 weeks of treatment
Description: Formalin-fixed paraffin-embedded HCC tissue and blood samples were obtained with informed consent from a published cohort of deidentified patients who underwent liver resection at the department of Surgery at Fundeni Clinical Institute, Bucharest, Romania.[31] Furthermore, we collected blood samples with informed consent from patients treated by regorafenib as standard of care (HCC) or in a phase I clinical trial of regorafenib monotherapy in patients with acute myeloid leukemia (AML). Peripheral blood was collected before regorafenib therapy and after 2 weeks of treatment and processed in a Clinical Laboratory Improvement Amendments-certified facility of the Steele Laboratories at MGH. […]
treated by regorafenib as standard of care (HCC) (using the DFCI Protocol No.: 13-416 “Collection of Specimens and Clinical Data for Patients with Known or Suspected Solid Tumors”, PI, Dr. Juric, MGH) or in a phase I clinical trial of regorafenib monotherapy in acute myeloid leukemia (AML) patients (ClinicalTrials.gov Identifier: NCT03042689, PI, Hobbs, MGH). Both protocols have been IRB approved, and written consent was obtained from all patients.
Protein analyses. […]
as §1

[1] = Pharmacokinetic analysis of regorafenib and metabolites in plasma and tumor tissue of mice with HCC and liver damage; conditions: n=4-5 mice
Description: From the orthotopic HCC and liver damage mouse models described above, blood samples were collected at 1, 4, 7 and 24 hours after once-daily oral administration of 5, 10 and 20 mg/kg regorafenib, respectively, for 5 days. Anti-PD1 antibody was given on days 1 and 4 with dose of 10 mg/kg by intraperitoneal injection. Blood samples were drawn from four to five animals per sampling time point. Regorafenib and its active metabolites M-2, M-4 and M-5 were analyzed in plasma samples using a validated bioanalytical liquid chromatography-tandem mass spectrometry.[25 33] Pharmacokinetic (PK) parameters were derived from the area under the plasma concentration versus time curve (AUC) using a non-compartmental analysis.
In addition, we evaluated PK parameters in HCC-bearing mice after regorafenib administration alone at doses of 5, 10 and 20 mg/kg or in combination with anti-PD1 therapy at the 10 mg/kg regorafenib dose for 5 days to achieve a steady state.

CNC(=O)c1cc(Oc2ccc(NC(=O)Nc3ccc(Cl)c(C(F)(F)F)c3)c(F)c2)ccn1 [regorafenib]
Hypoxic tissue area measured by CA-IX staining (RIL-175 HCC vasculature): significantly decreased | MVD (RIL-175 HCC vasculature): significant increase | STAT1 and STAT3 activity (p-STAT1/p-STAT3) in RIL-175 cells (RIL-175 cells): STAT1 activation and STAT3 inhibition | Concentration of plasma CXCL10 (CXCL10): increased concentration | Plasma maximum concentration (Cmax), R10 alone versus R10+P [1]: No difference
